Consider 2 compounds from patent publication US9187467B2, “2-phenyl benzothiazole linked imidazole compounds as potential anticancer agents and process for the preparation thereof” (Council of Scientific and Industrial Research, priority 2012, dated 2015).

The test system of one assay is MOLT-4. Set-up: unit not given here. To be noted: previous compounds (U.S. Pat. No. 7,384,966); cited from earlier work.
Another assay has as its system LOX IMVI. Set-up: unit not given here. To be noted: previous compounds (U.S. Pat. No. 7,384,966); cited from earlier work.
The subject of the next assay is ACHN. Set-up: unit not given here. As to conditions: previous compounds (U.S. Pat. No. 7,384,966); cited from earlier work.
The next assay deals with CCRF-CEM. Set-up: unit not given here. As to conditions: previous compounds (U.S. Pat. No. 7,384,966); cited from earlier work.
For the next assay, the system named is SNB-75. Set-up: unit not given here. As to conditions: previous compounds (U.S. Pat. No. 7,384,966); cited from earlier work.
In the next assay the test system is U251. Set-up: unit not given here. As to conditions: previous compounds (U.S. Pat. No. 7,384,966); cited from earlier work.
The subject of another assay is HL-60 (TB). More on the design: unit not given here. As to conditions: previous compounds (U.S. Pat. No. 7,384,966); cited from earlier work.
A further assay has as its system SF-539. More on the design: unit not given here. To be noted: previous compounds (U.S. Pat. No. 7,384,966); cited from earlier work.
A further assay deals with SW-620. More on the design: unit not given here. To be noted: previous compounds (U.S. Pat. No. 7,384,966); cited from earlier work.
Another assay deals with PC-3. Set-up: unit not given here. To be noted: previous compounds (U.S. Pat. No. 7,384,966); cited from earlier work.
For a further assay, the system named is OVCAR-3. Set-up: unit not given here. To be noted: previous compounds (U.S. Pat. No. 7,384,966); cited from earlier work.
For a further assay, the system named is MALME-3M. More on the design: unit not given here. As to conditions: previous compounds (U.S. Pat. No. 7,384,966); cited from earlier work.
A further assay relates to BT-549. More on the design: unit not given here. To be noted: previous compounds (U.S. Pat. No. 7,384,966); cited from earlier work.
The subject of another assay is NCI-H23. More on the design: unit not given here. As to conditions: previous compounds (U.S. Pat. No. 7,384,966); cited from earlier work.
Another assay relates to SF-295. More on the design: unit not given here. To be noted: previous compounds (U.S. Pat. No. 7,384,966); cited from earlier work.
The subject of another assay is NCI-H522. Set-up: unit not given here. As to conditions: previous compounds (U.S. Pat. No. 7,384,966); cited from earlier work.
A further assay has as its system OVCAR-8. Set-up: unit not given here. To be noted: previous compounds (U.S. Pat. No. 7,384,966); cited from earlier work.
For the next assay, the system named is EKVX. Set-up: unit not given here. To be noted: previous compounds (U.S. Pat. No. 7,384,966); cited from earlier work.
The subject of another assay is HOP-62. More on the design: unit not given here. To be noted: previous compounds (U.S. Pat. No. 7,384,966); cited from earlier work.
For the next assay, the system named is NCI/ADR-RES. More on the design: unit not given here. As to conditions: listed as head printed RES (second line of NCI/ADR-RES); previous compounds (U.S. Pat. No. 7,384,966); cited from earlier work.
The subject of another assay is UO-31. Set-up: unit not given here. As to conditions: previous compounds (U.S. Pat. No. 7,384,966); cited from earlier work.
Another assay deals with MDA-MB-231/ATCC. More on the design: unit not given here. As to conditions: previous compounds (U.S. Pat. No. 7,384,966); cited from earlier work.
For another assay, the system named is SNB-19. Set-up: unit not given here. To be noted: previous compounds (U.S. Pat. No. 7,384,966); cited from earlier work.
Another assay has as its system DU-145. More on the design: unit not given here. As to conditions: previous compounds (U.S. Pat. No. 7,384,966); cited from earlier work.
The subject of a further assay is SF-268. More on the design: unit not given here. As to conditions: previous compounds (U.S. Pat. No. 7,384,966); cited from earlier work.
In another assay the test system is SN12C. Set-up: unit not given here. As to conditions: previous compounds (U.S. Pat. No. 7,384,966); cited from earlier work.
In a further assay the test system is UACC-62. More on the design: unit not given here. To be noted: previous compounds (U.S. Pat. No. 7,384,966); cited from earlier work.
In a further assay the test system is K-562. More on the design: unit not given here. To be noted: previous compounds (U.S. Pat. No. 7,384,966); cited from earlier work.
The subject of the next assay is M14. Set-up: unit not given here. To be noted: previous compounds (U.S. Pat. No. 7,384,966); cited from earlier work.
For a further assay, the system named is CAKI-1. More on the design: unit not given here. As to conditions: previous compounds (U.S. Pat. No. 7,384,966); cited from earlier work.
The next assay concerns UACC-257. More on the design: unit not given here. To be noted: previous compounds (U.S. Pat. No. 7,384,966); cited from earlier work.
In a further assay the test system is HS 578T. Set-up: unit not given here. As to conditions: previous compounds (U.S. Pat. No. 7,384,966); cited from earlier work.
The test system of another assay is 786-0. More on the design: unit not given here. As to conditions: previous compounds (U.S. Pat. No. 7,384,966); cited from earlier work.
The test system of the next assay is A549/ATCC. Set-up: unit not given here. As to conditions: previous compounds (U.S. Pat. No. 7,384,966); cited from earlier work.
Assay [1] concerns microtubule network of MCF-7 cells. Description: Effect on microtubule network. The format is cell-based. To be noted: 2 μM. The procedure: FIG. 2 represents effect of compound 7d, the effective compound on the microtubule network of MCF-7 cells untreated cells (Con), nocodazole (Noc) and 7d at 2 μM concentration. Microtubules and unassembled tubulin are shown in green and DNA was stained with nuclear dye DAPI (4,6-diamidino-2-phenylindole) is shown in blue colour.
Inhibition of tubulin is associated with G2/M cell cycle arrest by interrupting chromosome segregation and affecting mitotic spindle formation. […] It was considered of interest to understand the mechanism of anti-cancer activity of compound 7d with regard to interaction with microtubule system. MCF-7 breast cancer cells were treated with Nocodazole (Noc), 7d compounds at 2 μM concentration.

On to `COc1ccc(-c2nc3ccc(F)cc3s2)cc1OC` [Compound 3d], for which the Log10GI50 in the assay on MOLT-4, in the assay with LOX IMVI, in the assay with ACHN, in the assay on CCRF-CEM, in the assay on SNB-75 and with U251 was above −4.0 each time. Moreover, the Log10GI50 in the assay with HL-60 (TB), in the assay on SF-539, in the assay with SW-620, with PC-3, with OVCAR-3 and with MALME-3M was above −4.0 in each case. For the same compound, the Log10GI50 in the assay with BT-549, with NCI-H23, with SF-295, in the assay with NCI-H522, in the assay on OVCAR-8 and with EKVX was above −4.0 each time. Also, the Log10GI50 in the assay on HOP-62, in the assay with NCI/ADR-RES, in the assay with UO-31, in the assay with MDA-MB-231/ATCC, with SNB-19 and in the assay with DU-145 was above −4.0 in each case. Besides, the Log10GI50 with SF-268, in the assay with SN12C, with UACC-62, with K-562, with M14 and with CAKI-1 was above −4.0 throughout. The Log10GI50 with UACC-257, in the assay with HS 578T, with 786-0 and with A549/ATCC was above −4.0 in each case.
With `COC(=O)Nc1nc2ccc(C(=O)c3cccs3)cc2[nH]1` [Nocodazole, reference compound], in assay [1], the microtubulin organization result is given as “disrupted microtubulin organization”.
